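Five concentrations, 48 hours, 96-well plates. Abbreviation: GI50, concentration required for 50% inhibition of growth.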 Calls of active or inactive are those of the source. Rule as the data show it: active = GI50 up to about 1.1 µM and inactive = higher.
Legend:
Experiment in all cases: inhibition of tumour cell growth, NCI panel, 48 h
A549 = system: A549
SF-268 = system: SF-268
SK-MEL-28 = system: SK-MEL-28
SR = system: SR
Hs-578T = system: Hs-578T
MDA-MB-435 = system: MDA-MB-435
COLO 205 = system: COLO 205
NCI-H460 = system: NCI-H460
HT-29 = system: HT-29
UO-31 = system: UO-31
SF-295 = system: SF-295
SK-MEL-5 = system: SK-MEL-5
TK-10 = system: TK-10
SK-OV-3 = system: SK-OV-3
HL-60 = system: HL-60
786-0 = system: 786-0
UACC-257 = system: UACC-257
T47D = system: T47D
A498 = system: A498

| Structure (SMILES) | GI50 (A549) | GI50 (SF-268) | GI50 (SK-MEL-28) | GI50 (SR) | GI50 (Hs-578T) | GI50 (MDA-MB-435) | GI50 (COLO 205) | GI50 (NCI-H460) | GI50 (HT-29) | GI50 (UO-31) | GI50 (SF-295) | GI50 (SK-MEL-5) | GI50 (TK-10) | GI50 (SK-OV-3) | GI50 (HL-60) | GI50 (786-0) | GI50 (UACC-257) | GI50 (T47D) | GI50 (A498) |
| --- | --- | --- | --- | --- | --- | --- | --- | --- | --- | --- | --- | --- | --- | --- | --- | --- | --- | --- | --- |
| O=C1NCCCc2nonc21 | > 100 µM (inactive) | > 100 µM (inactive) | > 100 µM (inactive) | > 100 µM (inactive) | > 100 µM (inactive) | > 100 µM (inactive) | > 100 µM (inactive) | > 100 µM (inactive) | > 100 µM (inactive) | > 100 µM (inactive) | > 100 µM (inactive) | > 100 µM (inactive) | > 100 µM (inactive) | > 100 µM (inactive) | > 100 µM (inactive) | > 100 µM (inactive) | > 100 µM (inactive) | > 100 µM (inactive) | – |
| O=C(/C=C/c1cccc(Oc2ccccc2)c1)NCc1ccc(C(=O)NCc2ccccc2)cc1 | > 100 µM (inactive) | > 100 µM (inactive) | > 100 µM (inactive) | > 100 µM (inactive) | > 100 µM (inactive) | > 100 µM (inactive) | > 100 µM (inactive) | > 100 µM (inactive) | 17.3 µM (inactive) | > 100 µM (inactive) | 21.8 µM (inactive) | > 100 µM (inactive) | 46.5 µM (inactive) | 4.55 µM (inactive) | – | 29 µM (inactive) | > 100 µM (inactive) | > 100 µM (inactive) | 51.5 µM (inactive) |
| C=CC(=O)Nc1ccc(NC(=O)C=C)c2c1C(=O)c1ccccc1C2=O | > 100 µM (inactive) | – | 33.5 µM (inactive) | 28.1 µM (inactive) | > 100 µM (inactive) | > 10 µM (inactive) | > 100 µM (inactive) | > 100 µM (inactive) | 45.5 µM (inactive) | 46.1 µM (inactive) | 10.8 µM (inactive) | 60.1 µM (inactive) | 23.2 µM (inactive) | – | 3.86 µM (inactive) | 21.5 µM (inactive) | > 100 µM (inactive) | > 100 µM (inactive) | > 100 µM (inactive) |
| N#Cc1c2c([nH]c(=O)c1C#N)CCCC2 | > 100 µM (inactive) | > 100 µM (inactive) | > 100 µM (inactive) | – | > 100 µM (inactive) | > 100 µM (inactive) | > 100 µM (inactive) | > 100 µM (inactive) | > 100 µM (inactive) | > 100 µM (inactive) | > 100 µM (inactive) | > 100 µM (inactive) | > 100 µM (inactive) | > 100 µM (inactive) | > 100 µM (inactive) | > 100 µM (inactive) | > 100 µM (inactive) | > 100 µM (inactive) | > 100 µM (inactive) |
| C=C(C)[C@@H]1CCc2c(c(C)cc(O)c(=O)c2O)C1 | 1.17 µM (inactive) | 2.88 µM (inactive) | 4.63 µM (inactive) | 0.515 µM (active) | 2.16 µM (inactive) | 3.13 µM (inactive) | 1.63 µM (inactive) | 0.102 µM (active) | 3.01 µM (inactive) | 0.92 µM (active) | 2 µM (inactive) | 0.564 µM (active) | 13.1 µM (inactive) | 1.49 µM (inactive) | 0.462 µM (active) | 1.41 µM (inactive) | 6.81 µM (inactive) | 3.8 µM (inactive) | – |
| O=[N+]([O-])c1ccc2c(c1)nc(Cc1ccccc1)n2C[C@@H]1CCCN2CCCCC12 (stereo not given in full) | 51.2 µM (inactive) | 45.8 µM (inactive) | 18.6 µM (inactive) | – | 38.5 µM (inactive) | 17.2 µM (inactive) | 17.3 µM (inactive) | 41.4 µM (inactive) | 17.5 µM (inactive) | 6.49 µM (inactive) | 18 µM (inactive) | 16.5 µM (inactive) | 37.5 µM (inactive) | 34.4 µM (inactive) | < 0.01 µM (active) | 22.3 µM (inactive) | 15.8 µM (inactive) | 39.4 µM (inactive) | 13.4 µM (inactive) |
| COC(=O)CC(c1ccccc1)C(C#N)(OP1(=O)OC(c2ccccc2)C(C)N1C)c1ccccc1 (stereo not given) | 35.2 µM (inactive) | > 100 µM (inactive) | > 100 µM (inactive) | – | > 100 µM (inactive) | 43.4 µM (inactive) | 21.3 µM (inactive) | 41.1 µM (inactive) | 46.8 µM (inactive) | 11.1 µM (inactive) | 71.6 µM (inactive) | 19 µM (inactive) | > 100 µM (inactive) | > 100 µM (inactive) | 26.2 µM (inactive) | 83.4 µM (inactive) | 34.9 µM (inactive) | 68.2 µM (inactive) | 39.4 µM (inactive) |
| C=C1C[C@@H]2O[C@H]3[C@H]4[C@@H](C[C@@H](C)[C@@H](OC(C)=O)[C@H]42)[C@@H](C)CO[C@@]3(C)[C@H](OC(=O)CCCCCCC)C[C@H]1O | 18.2 µM (inactive) | 16.1 µM (inactive) | 17.4 µM (inactive) | 15.8 µM (inactive) | 14.4 µM (inactive) | 18.7 µM (inactive) | 16.4 µM (inactive) | 16.1 µM (inactive) | 20.1 µM (inactive) | 15.8 µM (inactive) | 21.7 µM (inactive) | 15.5 µM (inactive) | 17.2 µM (inactive) | – | 12.4 µM (inactive) | 15.5 µM (inactive) | 16.7 µM (inactive) | 11.1 µM (inactive) | 16.2 µM (inactive) |
| N#Cc1c(N)c2c(c(-c3ccccc3)c1-c1ccccc1)C(=O)N(N)C2=O | 94 µM (inactive) | > 100 µM (inactive) | > 100 µM (inactive) | > 100 µM (inactive) | 60.1 µM (inactive) | > 100 µM (inactive) | > 100 µM (inactive) | > 100 µM (inactive) | > 100 µM (inactive) | 40.3 µM (inactive) | 89.3 µM (inactive) | 87.9 µM (inactive) | > 100 µM (inactive) | > 100 µM (inactive) | 44 µM (inactive) | 98.2 µM (inactive) | > 100 µM (inactive) | 49.4 µM (inactive) | – |
| CCOC(=O)CCCn1nnc(C(=O)OCC)c1C(=O)OCC | > 100 µM (inactive) | > 100 µM (inactive) | > 100 µM (inactive) | > 100 µM (inactive) | > 100 µM (inactive) | > 100 µM (inactive) | > 100 µM (inactive) | > 100 µM (inactive) | > 100 µM (inactive) | > 100 µM (inactive) | > 100 µM (inactive) | > 100 µM (inactive) | > 100 µM (inactive) | – | – | > 100 µM (inactive) | > 100 µM (inactive) | > 100 µM (inactive) | – |
| CCOC(=O)c1c[nH]c2c(Sc3ccccc3)nccc2c1=O | 87.5 µM (inactive) | > 100 µM (inactive) | > 100 µM (inactive) | – | > 100 µM (inactive) | 39.6 µM (inactive) | > 100 µM (inactive) | > 100 µM (inactive) | 97.5 µM (inactive) | 13.2 µM (inactive) | > 100 µM (inactive) | 92.7 µM (inactive) | > 100 µM (inactive) | > 100 µM (inactive) | 27.5 µM (inactive) | > 100 µM (inactive) | > 100 µM (inactive) | 18.3 µM (inactive) | > 100 µM (inactive) |

Source: ChEMBL document CHEMBL1201862, “PubChem BioAssay data set” (2004)
